# How the values were obtained:
# Test in all cases: KINOMEscan competition binding
# Conditions in all cases: compound 0.5 µM
# [1] = tested on: ABL1 (human), P00519 [E255K]
# CDK14 (human) = CDK14 (human) (UniProt O94921)
# CLK3 (human) = CLK3 (human) (UniProt P49761)
# CSNK2A2 (human) = CSNK2A2 (human) (UniProt P19784)
# DCLK2 (human) = DCLK2 (human) (UniProt Q8N568)
# DDR2 (human) = DDR2 (human) (UniProt Q16832)
# EPHA6 (human) = EPHA6 (human) (UniProt Q9UF33)
# ERBB2 (human) = ERBB2 (human) (UniProt P04626)
# FLT3 (human) = FLT3 (human) (UniProt P36888)
# [2] = tested on: FLT3 (human), P36888 [D835Y]
# [3] = tested on: FLT3 (human), P36888 [ITD]
# IKBKE (human) = IKBKE (human) (UniProt Q14164)
# KDR (human) = KDR (human) (UniProt P35968)
# [4] = tested on: LRRK2 (human), Q5S007 [G2019S]
# MAP2K7 (human) = MAP2K7 (human) (UniProt O14733)
# MAP3K11 (human) = MAP3K11 (human) (UniProt Q16584)
# MAP3K15 (human) = MAP3K15 (human) (UniProt Q6ZN16)
# MAP3K9 (human) = MAP3K9 (human) (UniProt P80192)
# MAPK6 (human) = MAPK6 (human) (UniProt Q16659)
# MARK2 (human) = MARK2 (human) (UniProt Q7KZI7)
# NEK11 (human) = NEK11 (human) (UniProt Q8NG66)
# NEK3 (human) = NEK3 (human) (UniProt P51956)
# NTRK1 (human) = NTRK1 (human) (UniProt P04629)
# NUAK2 (human) = NUAK2 (human) (UniProt Q9H093)
# OXSR1 (human) = OXSR1 (human) (UniProt O95747)
# PIK3CA (human) = PIK3CA (human) (UniProt P42336)
# [5] = tested on: PIK3CA (human), P42336 [E545A]
# [6] = tested on: PIK3CA (human), P42336 [Q546K]
# PIM1 (human) = PIM1 (human) (UniProt P11309)
# PLK3 (human) = PLK3 (human) (UniProt Q9H4B4)
# PLK4 (human) = PLK4 (human) (UniProt O00444)
# PRKCE (human) = PRKCE (human) (UniProt Q02156)
# PRPF4B (human) = PRPF4B (human) (UniProt Q13523)
# RIOK3 (human) = RIOK3 (human) (UniProt O14730)
# RPS6KA2 KD2 (human) = RPS6KA2 KD2 (human) (UniProt Q15349)
# SGK110 (human) = SGK110 (human) (UniProt P0C264)
# SNRK (human) = SNRK (human) (UniProt Q9NRH2)
# SRPK2 (human) = SRPK2 (human) (UniProt P78362)
# TBK1 (human) = TBK1 (human) (UniProt Q9UHD2)
# TEC (human) = TEC (human) (UniProt P42680)
# TLK1 (human) = TLK1 (human) (UniProt Q9UKI8)
# ULK2 (human) = ULK2 (human) (UniProt Q8IYT8)
# Chain of NEK11 (human) (Q8NG66 whole entry, looked up): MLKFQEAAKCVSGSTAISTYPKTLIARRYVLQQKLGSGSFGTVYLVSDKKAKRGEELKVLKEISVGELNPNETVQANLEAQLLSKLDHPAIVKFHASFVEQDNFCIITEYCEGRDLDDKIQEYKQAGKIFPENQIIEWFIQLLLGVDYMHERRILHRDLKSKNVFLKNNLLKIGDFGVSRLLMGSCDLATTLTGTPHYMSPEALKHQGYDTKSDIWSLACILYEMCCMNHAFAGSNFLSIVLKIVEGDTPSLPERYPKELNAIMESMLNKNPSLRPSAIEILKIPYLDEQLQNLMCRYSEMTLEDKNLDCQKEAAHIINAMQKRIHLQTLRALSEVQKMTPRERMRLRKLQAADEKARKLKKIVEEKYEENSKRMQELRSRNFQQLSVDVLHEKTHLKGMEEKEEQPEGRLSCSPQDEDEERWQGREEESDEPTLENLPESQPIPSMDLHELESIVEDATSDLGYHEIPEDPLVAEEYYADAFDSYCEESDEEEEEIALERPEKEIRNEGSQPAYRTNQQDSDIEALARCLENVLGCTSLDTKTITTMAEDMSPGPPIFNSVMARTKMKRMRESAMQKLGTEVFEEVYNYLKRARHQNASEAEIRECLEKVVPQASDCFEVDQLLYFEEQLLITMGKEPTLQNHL
# Chain of PIM1 (human) (P11309 whole entry, looked up): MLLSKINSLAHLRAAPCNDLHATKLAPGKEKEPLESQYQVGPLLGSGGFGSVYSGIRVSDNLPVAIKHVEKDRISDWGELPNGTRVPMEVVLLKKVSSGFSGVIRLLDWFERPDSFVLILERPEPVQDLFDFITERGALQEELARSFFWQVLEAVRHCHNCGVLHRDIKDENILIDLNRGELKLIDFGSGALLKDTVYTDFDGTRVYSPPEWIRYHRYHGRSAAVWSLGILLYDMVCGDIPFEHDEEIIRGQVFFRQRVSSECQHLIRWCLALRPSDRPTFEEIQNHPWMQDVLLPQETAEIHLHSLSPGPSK
# Chain of RPS6KA2 KD2 (human) (Q15349 whole entry, looked up): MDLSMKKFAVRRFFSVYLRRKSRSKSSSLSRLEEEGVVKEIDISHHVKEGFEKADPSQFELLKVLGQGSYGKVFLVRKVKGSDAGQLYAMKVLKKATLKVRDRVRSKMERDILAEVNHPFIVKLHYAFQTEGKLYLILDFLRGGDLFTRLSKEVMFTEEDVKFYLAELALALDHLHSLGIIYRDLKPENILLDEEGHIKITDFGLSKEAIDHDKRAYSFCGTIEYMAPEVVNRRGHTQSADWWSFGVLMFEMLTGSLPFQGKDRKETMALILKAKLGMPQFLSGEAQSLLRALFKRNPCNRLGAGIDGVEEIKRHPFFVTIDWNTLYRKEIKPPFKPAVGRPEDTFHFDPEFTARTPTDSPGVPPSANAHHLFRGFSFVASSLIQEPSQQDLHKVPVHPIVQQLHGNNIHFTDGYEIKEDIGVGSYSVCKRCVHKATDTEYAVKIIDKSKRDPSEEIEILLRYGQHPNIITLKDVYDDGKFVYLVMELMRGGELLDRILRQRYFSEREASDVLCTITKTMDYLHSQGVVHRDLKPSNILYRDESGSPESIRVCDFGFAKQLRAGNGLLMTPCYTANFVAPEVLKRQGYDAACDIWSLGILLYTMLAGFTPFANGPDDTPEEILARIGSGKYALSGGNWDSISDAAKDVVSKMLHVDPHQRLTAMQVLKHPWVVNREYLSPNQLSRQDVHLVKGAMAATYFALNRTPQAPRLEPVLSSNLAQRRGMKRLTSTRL
# Chain of MAP2K7 (human) (O14733 whole entry, looked up): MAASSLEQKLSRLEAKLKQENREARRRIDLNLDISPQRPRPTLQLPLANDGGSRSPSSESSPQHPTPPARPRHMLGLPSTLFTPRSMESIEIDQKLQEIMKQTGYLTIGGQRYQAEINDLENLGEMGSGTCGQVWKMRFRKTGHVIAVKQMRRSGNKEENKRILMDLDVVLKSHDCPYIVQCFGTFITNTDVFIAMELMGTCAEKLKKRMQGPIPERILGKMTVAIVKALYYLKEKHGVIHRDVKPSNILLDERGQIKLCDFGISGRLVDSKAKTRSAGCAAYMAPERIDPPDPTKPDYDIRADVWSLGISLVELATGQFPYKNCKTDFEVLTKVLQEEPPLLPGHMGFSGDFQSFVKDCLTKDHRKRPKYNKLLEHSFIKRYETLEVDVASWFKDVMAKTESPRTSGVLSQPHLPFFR
# Chain of TLK1 (human) (Q9UKI8 whole entry, looked up): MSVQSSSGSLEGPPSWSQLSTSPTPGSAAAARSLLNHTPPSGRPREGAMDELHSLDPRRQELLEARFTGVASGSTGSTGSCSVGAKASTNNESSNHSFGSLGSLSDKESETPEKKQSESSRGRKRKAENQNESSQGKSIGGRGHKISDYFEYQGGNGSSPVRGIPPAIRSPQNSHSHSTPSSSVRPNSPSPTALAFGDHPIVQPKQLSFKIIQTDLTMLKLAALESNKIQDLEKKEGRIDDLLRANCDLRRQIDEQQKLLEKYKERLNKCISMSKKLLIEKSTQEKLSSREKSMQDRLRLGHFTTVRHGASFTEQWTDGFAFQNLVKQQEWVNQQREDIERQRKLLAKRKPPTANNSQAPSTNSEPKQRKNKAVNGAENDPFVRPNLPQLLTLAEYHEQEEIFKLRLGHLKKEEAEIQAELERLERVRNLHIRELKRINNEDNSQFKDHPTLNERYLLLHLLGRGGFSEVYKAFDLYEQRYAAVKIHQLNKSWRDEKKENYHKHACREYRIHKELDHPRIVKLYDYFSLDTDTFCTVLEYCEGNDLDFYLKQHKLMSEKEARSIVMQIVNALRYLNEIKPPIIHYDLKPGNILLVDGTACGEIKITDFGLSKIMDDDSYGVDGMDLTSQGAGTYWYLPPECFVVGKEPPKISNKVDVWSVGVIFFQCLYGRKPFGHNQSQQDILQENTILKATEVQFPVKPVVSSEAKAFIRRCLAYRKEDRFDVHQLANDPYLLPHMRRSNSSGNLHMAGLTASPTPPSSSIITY
# Chain of MAP3K9 (human) (P80192 whole entry, looked up): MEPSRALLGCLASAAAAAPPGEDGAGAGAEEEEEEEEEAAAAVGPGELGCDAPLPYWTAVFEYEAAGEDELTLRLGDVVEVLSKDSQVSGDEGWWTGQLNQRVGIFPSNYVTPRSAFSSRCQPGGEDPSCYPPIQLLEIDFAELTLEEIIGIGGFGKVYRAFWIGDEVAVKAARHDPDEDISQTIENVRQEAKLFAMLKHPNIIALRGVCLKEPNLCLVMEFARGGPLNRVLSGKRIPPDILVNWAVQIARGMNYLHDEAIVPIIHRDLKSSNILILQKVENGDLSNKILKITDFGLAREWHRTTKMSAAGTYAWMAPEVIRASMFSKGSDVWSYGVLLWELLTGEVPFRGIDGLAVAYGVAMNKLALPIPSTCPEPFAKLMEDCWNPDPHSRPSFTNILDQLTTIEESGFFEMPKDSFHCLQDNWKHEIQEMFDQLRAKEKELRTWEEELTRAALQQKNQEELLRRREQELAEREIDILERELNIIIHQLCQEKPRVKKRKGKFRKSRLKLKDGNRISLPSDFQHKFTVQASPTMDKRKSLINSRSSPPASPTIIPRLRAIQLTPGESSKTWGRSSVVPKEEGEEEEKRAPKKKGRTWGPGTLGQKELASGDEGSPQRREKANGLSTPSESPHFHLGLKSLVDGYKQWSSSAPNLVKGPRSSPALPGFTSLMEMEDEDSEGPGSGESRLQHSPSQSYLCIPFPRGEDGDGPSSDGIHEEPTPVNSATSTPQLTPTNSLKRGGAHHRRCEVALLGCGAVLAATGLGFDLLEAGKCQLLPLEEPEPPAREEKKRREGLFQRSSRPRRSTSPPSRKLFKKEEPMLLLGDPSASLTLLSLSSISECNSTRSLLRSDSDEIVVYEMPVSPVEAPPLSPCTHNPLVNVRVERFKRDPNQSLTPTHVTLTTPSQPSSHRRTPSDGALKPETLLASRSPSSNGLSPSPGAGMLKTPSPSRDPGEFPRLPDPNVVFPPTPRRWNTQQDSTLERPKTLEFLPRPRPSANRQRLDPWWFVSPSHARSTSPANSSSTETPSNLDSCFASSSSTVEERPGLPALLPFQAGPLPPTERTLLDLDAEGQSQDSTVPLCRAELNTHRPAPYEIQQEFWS
# Chain of CSNK2A2 (human) (P19784 whole entry, looked up): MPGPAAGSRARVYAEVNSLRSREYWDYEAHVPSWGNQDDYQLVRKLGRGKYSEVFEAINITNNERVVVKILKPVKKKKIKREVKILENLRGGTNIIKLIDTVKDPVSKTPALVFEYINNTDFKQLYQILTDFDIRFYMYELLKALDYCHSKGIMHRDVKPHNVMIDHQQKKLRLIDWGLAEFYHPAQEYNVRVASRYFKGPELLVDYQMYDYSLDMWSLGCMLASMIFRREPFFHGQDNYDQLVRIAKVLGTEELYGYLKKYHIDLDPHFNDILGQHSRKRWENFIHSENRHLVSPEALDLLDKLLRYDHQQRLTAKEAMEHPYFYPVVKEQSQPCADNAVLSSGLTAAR
# Chain of OXSR1 (human) (O95747 whole entry, looked up): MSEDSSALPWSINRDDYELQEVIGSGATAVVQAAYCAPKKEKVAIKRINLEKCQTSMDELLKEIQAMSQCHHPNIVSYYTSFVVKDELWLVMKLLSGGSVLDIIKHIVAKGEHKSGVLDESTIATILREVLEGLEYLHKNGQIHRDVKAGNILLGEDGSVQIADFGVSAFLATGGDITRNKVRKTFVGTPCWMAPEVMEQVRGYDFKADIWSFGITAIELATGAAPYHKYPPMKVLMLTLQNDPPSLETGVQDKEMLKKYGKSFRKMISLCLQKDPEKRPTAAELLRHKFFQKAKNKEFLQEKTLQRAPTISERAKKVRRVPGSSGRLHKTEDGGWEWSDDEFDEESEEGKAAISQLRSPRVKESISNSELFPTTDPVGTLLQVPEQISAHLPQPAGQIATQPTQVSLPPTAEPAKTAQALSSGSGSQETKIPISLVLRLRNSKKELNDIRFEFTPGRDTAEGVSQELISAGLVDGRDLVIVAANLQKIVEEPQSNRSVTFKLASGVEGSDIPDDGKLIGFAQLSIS
smiles,measurement,setting,value
Cn1c2ccccc2c2c3c(c4c5ccccc5n(CCC#N)c4c21)CNC3=O,"kinase still bound, per cent of control",[1],75%
same,"kinase still bound, per cent of control",CDK14 (human),100%
same,"kinase still bound, per cent of control",CLK3 (human),94%
same,"kinase still bound, per cent of control",CSNK2A2 (human),65%
same,"kinase still bound, per cent of control",DCLK2 (human),100%
same,"kinase still bound, per cent of control",DDR2 (human),100%
same,"kinase still bound, per cent of control",EPHA6 (human),86%
same,"kinase still bound, per cent of control",ERBB2 (human),87%
same,"kinase still bound, per cent of control",FLT3 (human),1.4%
same,"kinase still bound, per cent of control",[2],0%
same,"kinase still bound, per cent of control",[3],0.2%
same,"kinase still bound, per cent of control",IKBKE (human),99%
same,"kinase still bound, per cent of control",KDR (human),82%
same,"kinase still bound, per cent of control",[4],9.4%
same,"kinase still bound, per cent of control",MAP2K7 (human),79%
same,"kinase still bound, per cent of control",MAP3K11 (human),17%
same,"kinase still bound, per cent of control",MAP3K15 (human),97%
same,"kinase still bound, per cent of control",MAP3K9 (human),0.65%
same,"kinase still bound, per cent of control",MAPK6 (human),74%
same,"kinase still bound, per cent of control",MARK2 (human),9.8%
same,"kinase still bound, per cent of control",NEK11 (human),100%
same,"kinase still bound, per cent of control",NEK3 (human),100%
same,"kinase still bound, per cent of control",NTRK1 (human),0.1%
same,"kinase still bound, per cent of control",NUAK2 (human),4.4%
same,"kinase still bound, per cent of control",OXSR1 (human),100%
same,"kinase still bound, per cent of control",PIK3CA (human),100%
same,"kinase still bound, per cent of control",[5],100%
same,"kinase still bound, per cent of control",[6],100%
same,"kinase still bound, per cent of control",PIM1 (human),32%
same,"kinase still bound, per cent of control",PLK3 (human),100%
same,"kinase still bound, per cent of control",PLK4 (human),6.5%
same,"kinase still bound, per cent of control",PRKCE (human),66%
same,"kinase still bound, per cent of control",PRPF4B (human),12%
same,"kinase still bound, per cent of control",RIOK3 (human),1.2%
same,"kinase still bound, per cent of control",RPS6KA2 KD2 (human),100%
same,"kinase still bound, per cent of control",SGK110 (human),13%
same,"kinase still bound, per cent of control",SNRK (human),69%
same,"kinase still bound, per cent of control",SRPK2 (human),9.2%
same,"kinase still bound, per cent of control",TBK1 (human),92%
same,"kinase still bound, per cent of control",TEC (human),92%
same,"kinase still bound, per cent of control",TLK1 (human),83%
same,"kinase still bound, per cent of control",ULK2 (human),86%

# — the kinase profiling compilation of Christmann-Franck et al. (2016)
